Measurements reported in paper PMC7611149 (ACS chemical biology, 2018).

How the values were obtained:
CpOGA = CpOGA (Clostridium perfringens, UniProt Q0TR53); experiment: biochemical; assay type: binding
human OGA (hOGA) = target: T1, human OGA (hOGA) (Homo sapiens, UniProt O60502); experiment: Fluorescence polarization displacement of GlcNAcstatin BF from hOGA; assay type: binding; details: FP displacement, 50 nM GlcNAcstatin BF, 250 nM hOGA, TBS pH 7.5
T1 sequence (O60502 60-336 limits assumed): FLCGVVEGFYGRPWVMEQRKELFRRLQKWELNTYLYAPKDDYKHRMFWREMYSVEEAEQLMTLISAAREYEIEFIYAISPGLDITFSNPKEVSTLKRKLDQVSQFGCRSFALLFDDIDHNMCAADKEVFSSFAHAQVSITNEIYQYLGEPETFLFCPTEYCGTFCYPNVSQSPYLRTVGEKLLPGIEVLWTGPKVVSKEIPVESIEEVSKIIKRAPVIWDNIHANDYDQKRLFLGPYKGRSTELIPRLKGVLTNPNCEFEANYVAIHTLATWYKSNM

Chain of CpOGA (Q0TR53 31-1001 limits assumed): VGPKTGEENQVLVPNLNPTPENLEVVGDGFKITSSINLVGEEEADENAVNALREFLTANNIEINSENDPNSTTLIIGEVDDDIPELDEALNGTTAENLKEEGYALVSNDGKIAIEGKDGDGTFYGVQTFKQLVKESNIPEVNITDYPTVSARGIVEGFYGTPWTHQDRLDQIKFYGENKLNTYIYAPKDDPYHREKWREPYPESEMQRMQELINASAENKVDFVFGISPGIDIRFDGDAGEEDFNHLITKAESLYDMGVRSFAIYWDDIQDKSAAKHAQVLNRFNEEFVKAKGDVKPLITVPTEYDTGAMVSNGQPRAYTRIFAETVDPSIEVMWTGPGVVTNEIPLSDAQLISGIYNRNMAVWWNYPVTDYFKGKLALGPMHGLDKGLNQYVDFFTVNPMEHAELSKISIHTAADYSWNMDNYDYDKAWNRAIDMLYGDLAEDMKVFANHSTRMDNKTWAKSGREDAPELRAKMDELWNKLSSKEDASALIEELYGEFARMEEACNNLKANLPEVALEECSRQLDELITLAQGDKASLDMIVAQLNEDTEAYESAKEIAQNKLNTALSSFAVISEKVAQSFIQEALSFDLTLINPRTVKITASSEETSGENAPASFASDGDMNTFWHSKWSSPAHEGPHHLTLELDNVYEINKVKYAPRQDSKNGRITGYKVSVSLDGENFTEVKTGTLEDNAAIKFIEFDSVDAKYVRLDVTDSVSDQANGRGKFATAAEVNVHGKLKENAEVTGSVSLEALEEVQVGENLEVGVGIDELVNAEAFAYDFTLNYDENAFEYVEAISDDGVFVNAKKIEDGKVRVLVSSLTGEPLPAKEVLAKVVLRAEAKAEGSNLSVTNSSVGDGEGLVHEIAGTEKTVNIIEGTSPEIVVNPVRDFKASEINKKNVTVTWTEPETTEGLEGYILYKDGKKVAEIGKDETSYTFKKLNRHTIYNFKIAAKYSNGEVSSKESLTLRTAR

Compound | Ki (CpOGA) [µM] | Ki (human OGA (hOGA)) [µM]
FC(F)(F)C1=NCCNC=C1 [5TFD, 5-(trifluoromethyl)-2,3-dihydro-1H-1,4-diazepine] | 146 | –
CC(=O)N[C@H]1c2nc(CCc3ccccc3)cn2[C@H](CO)[C@@H](O)[C@@H]1O [GlcNAcstatin B] | – | 0.0232
